Literature values in US9481856B2, “Pharmaceutical formulations comprising stabilized polysaccharides and source of hydrogen peroxide” (Bausch & Lomb Incorporated, priority 2008, dated 2016).

Tests used:
[1] = tested on: sensitive tissues of the eye

Substance	concentration causing necrosis [1]	effect on goblet cell density (goblet cell)
benzalkonium chloride [BAK]	0.05-0.1%	–
α-4-{tris(2hydroxyethyl)ammonium-2-butenyl} poly {1-dimethylammonium-2-butenyl}-ω-tris(2-hydroxyethyl)ammonium chloride [polyquaternium-1]	–	significantly to decrease goblet cell density
